In PubChem BioAssay (NCI):
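Assay format: 96-well plates, 48-hour exposure. GI50: concentration for 50% inhibition of growth. Definition used: TGI = concentration required for complete inhibition of growth.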

Experiments:
Experiment in all cases: NCI tumour cell line growth inhibition, 48 h
786-0 renal = system: 786-0 renal
A498 renal = system: A498 renal
A549 NSCLC = system: A549 NSCLC
ACHN renal = system: ACHN renal
BT-549 breast = system: BT-549 breast
CAKI-1 renal = system: CAKI-1 renal
CCRF-CEM leukemia = system: CCRF-CEM leukemia
COLO 205 colon = system: COLO 205 colon
DU-145 prostate = system: DU-145 prostate
EKVX NSCLC = system: EKVX NSCLC
HCC-2998 colon = system: HCC-2998 colon
HCT-116 colon = system: HCT-116 colon
HCT-15 colon = system: HCT-15 colon
HL-60(TB) leukemia = system: HL-60(TB) leukemia
HOP-62 NSCLC = system: HOP-62 NSCLC
HOP-92 NSCLC = system: HOP-92 NSCLC
HS 578T breast = system: HS 578T breast
HT29 colon = system: HT29 colon
IGROV1 ovarian = system: IGROV1 ovarian
K-562 leukemia = system: K-562 leukemia
KM12 colon = system: KM12 colon
LOX IMVI melanoma = system: LOX IMVI melanoma
M14 melanoma = system: M14 melanoma
MALME-3M melanoma = system: MALME-3M melanoma
MCF7 breast = system: MCF7 breast
MDA-MB-231 breast = system: MDA-MB-231 breast
MDA-MB-435 = system: MDA-MB-435
MOLT-4 leukemia = system: MOLT-4 leukemia
NCI-H226 lung = system: NCI-H226 lung
NCI-H23 lung = system: NCI-H23 lung
NCI-H460 lung = system: NCI-H460 lung
NCI-H522 lung = system: NCI-H522 lung
NCI/ADR-RES ovarian = system: NCI/ADR-RES ovarian
OVCAR-3 ovarian = system: OVCAR-3 ovarian
OVCAR-4 ovarian = system: OVCAR-4 ovarian
OVCAR-5 ovarian = system: OVCAR-5 ovarian
OVCAR-8 ovarian = system: OVCAR-8 ovarian
PC-3 prostate = system: PC-3 prostate
RPMI-8226 leukemia = system: RPMI-8226 leukemia
RXF 393 renal = system: RXF 393 renal
SF-268 CNS = system: SF-268 CNS
SF-295 CNS = system: SF-295 CNS
SF-539 CNS = system: SF-539 CNS
SK-MEL-2 melanoma = system: SK-MEL-2 melanoma
SK-MEL-28 melanoma = system: SK-MEL-28 melanoma
SK-MEL-5 melanoma = system: SK-MEL-5 melanoma
SK-OV-3 ovarian = system: SK-OV-3 ovarian
SN12C renal = system: SN12C renal
SNB-19 CNS = system: SNB-19 CNS
SNB-75 CNS = system: SNB-75 CNS
SR leukemia = system: SR leukemia
SW-620 colon = system: SW-620 colon
T-47D breast = system: T-47D breast
TK-10 renal = system: TK-10 renal
U251 CNS = system: U251 CNS
UACC-257 melanoma = system: UACC-257 melanoma
UACC-62 melanoma = system: UACC-62 melanoma
UO-31 renal = system: UO-31 renal

SMILES: Oc1ccc(C(c2ccc(O)cc2)c2ccc(Cl)cn2)cc1
- GI50 (786-0 renal): 36.2 µM
- TGI (786-0 renal): > 100 µM
- GI50 (A498 renal): 0.344 µM
- TGI (A498 renal): 26.5 µM
- GI50 (A549 NSCLC): 1.21 µM
- TGI (A549 NSCLC): > 100 µM
- GI50 (ACHN renal): 0.427 µM
- TGI (ACHN renal): 22.2 µM
- GI50 (BT-549 breast): 0.0231 µM
- TGI (BT-549 breast): 0.0707 µM
- GI50 (CAKI-1 renal): 22.1 µM
- TGI (CAKI-1 renal): > 100 µM
- GI50 (CCRF-CEM leukemia): 14.9 µM
- TGI (CCRF-CEM leukemia): > 100 µM
- GI50 (COLO 205 colon): 0.0416 µM
- TGI (COLO 205 colon): 4.97 µM
- GI50 (DU-145 prostate): 1.06 µM
- TGI (DU-145 prostate): > 100 µM
- GI50 (EKVX NSCLC): 0.349 µM
- TGI (EKVX NSCLC): 6.59 µM
- GI50 (HCC-2998 colon): 0.279 µM
- TGI (HCC-2998 colon): 9.36 µM
- GI50 (HCT-116 colon): 0.473 µM
- TGI (HCT-116 colon): > 100 µM
- GI50 (HCT-15 colon): 0.337 µM
- TGI (HCT-15 colon): 56.1 µM
- GI50 (HL-60(TB) leukemia): 3.56 µM
- TGI (HL-60(TB) leukemia): 22 µM
- GI50 (HOP-62 NSCLC): 33.7 µM
- TGI (HOP-62 NSCLC): > 100 µM
- GI50 (HOP-92 NSCLC): 0.266 µM
- TGI (HOP-92 NSCLC): 0.947 µM
- GI50 (HS 578T breast): 0.0216 µM
- TGI (HS 578T breast): 0.0624 µM
- GI50 (HT29 colon): 4.97 µM
- TGI (HT29 colon): > 100 µM
- GI50 (IGROV1 ovarian): 0.378 µM
- TGI (IGROV1 ovarian): 42 µM
- GI50 (K-562 leukemia): 13.5 µM
- TGI (K-562 leukemia): > 100 µM
- GI50 (KM12 colon): 0.463 µM
- TGI (KM12 colon): > 100 µM
- GI50 (LOX IMVI melanoma): 0.295 µM
- TGI (LOX IMVI melanoma): > 100 µM
- GI50 (M14 melanoma): 21.3 µM
- TGI (M14 melanoma): > 100 µM
- GI50 (MALME-3M melanoma): 24.6 µM
- TGI (MALME-3M melanoma): > 100 µM
- GI50 (MCF7 breast): 0.0546 µM
- TGI (MCF7 breast): 0.545 µM
- GI50 (MDA-MB-231 breast): 28 µM
- TGI (MDA-MB-231 breast): > 100 µM
- GI50 (MDA-MB-435): 23.3 µM
- TGI (MDA-MB-435): > 86.2 µM
- GI50 (MOLT-4 leukemia): 23.7 µM
- TGI (MOLT-4 leukemia): > 100 µM
- GI50 (NCI-H226 lung): 1.93 µM
- TGI (NCI-H226 lung): > 45.8 µM
- GI50 (NCI-H23 lung): 0.0959 µM
- TGI (NCI-H23 lung): 0.983 µM
- GI50 (NCI-H460 lung): 31.6 µM
- TGI (NCI-H460 lung): > 100 µM
- GI50 (NCI-H522 lung): 2.63 µM
- TGI (NCI-H522 lung): 69.8 µM
- GI50 (NCI/ADR-RES ovarian): 0.0512 µM
- TGI (NCI/ADR-RES ovarian): 0.284 µM
- GI50 (OVCAR-3 ovarian): 0.0266 µM
- TGI (OVCAR-3 ovarian): 0.0769 µM
- GI50 (OVCAR-4 ovarian): 0.0243 µM
- TGI (OVCAR-4 ovarian): 0.0598 µM
- GI50 (OVCAR-5 ovarian): 17.6 µM
- TGI (OVCAR-5 ovarian): > 100 µM
- GI50 (OVCAR-8 ovarian): 0.0346 µM
- TGI (OVCAR-8 ovarian): 1.16 µM
- GI50 (PC-3 prostate): 0.194 µM
- TGI (PC-3 prostate): 0.708 µM
- GI50 (RPMI-8226 leukemia): 21.1 µM
- TGI (RPMI-8226 leukemia): > 84.8 µM
- GI50 (RXF 393 renal): 0.0593 µM
- TGI (RXF 393 renal): 1.65 µM
- GI50 (SF-268 CNS): 25.9 µM
- TGI (SF-268 CNS): > 100 µM
- GI50 (SF-295 CNS): 0.403 µM
- TGI (SF-295 CNS): 7.21 µM
- GI50 (SF-539 CNS): 13.7 µM
- TGI (SF-539 CNS): > 100 µM
- GI50 (SK-MEL-2 melanoma): 4.31 µM
- TGI (SK-MEL-2 melanoma): 60.3 µM
- GI50 (SK-MEL-28 melanoma): 28 µM
- TGI (SK-MEL-28 melanoma): > 100 µM
- GI50 (SK-MEL-5 melanoma): 15.6 µM
- TGI (SK-MEL-5 melanoma): 34.5 µM
- GI50 (SK-OV-3 ovarian): 18.6 µM
- TGI (SK-OV-3 ovarian): > 100 µM
- GI50 (SN12C renal): 0.0408 µM
- TGI (SN12C renal): 0.331 µM
- GI50 (SNB-19 CNS): 19.1 µM
- TGI (SNB-19 CNS): > 100 µM
- GI50 (SNB-75 CNS): 0.17 µM
- TGI (SNB-75 CNS): 0.451 µM
- GI50 (SR leukemia): 29.5 µM
- TGI (SR leukemia): > 100 µM
- GI50 (SW-620 colon): 60.7 µM
- TGI (SW-620 colon): > 100 µM
- GI50 (T-47D breast): 0.0243 µM
- TGI (T-47D breast): 0.0762 µM
- GI50 (TK-10 renal): 0.0951 µM
- TGI (TK-10 renal): 0.525 µM
- GI50 (U251 CNS): 42.3 µM
- TGI (U251 CNS): > 100 µM
- GI50 (UACC-257 melanoma): 23.1 µM
- TGI (UACC-257 melanoma): > 100 µM
- GI50 (UACC-62 melanoma): 1.59 µM
- TGI (UACC-62 melanoma): 17.8 µM
- GI50 (UO-31 renal): 2.04 µM
- TGI (UO-31 renal): > 100 µM
